No end group written: not given here.
Test system: sera from patients infected with group O HIV-1 retroviruses
Test: Immunoenzymatic test: Test No. 1 (immunoreactivity of peptides coated on microplates)
Type: binding, human
Design: key to ABSORBANCE: >: signal greater than the reading capacity of the spectrophotometer
Conditions: cyclized peptide 2 μg/ml
Experimental: The sera used ESS, DUR, VAU and HAD are sera from French patients infected with group O HIV-1 retroviruses. The other serum samples from patients infected with group O HIV-1 retroviruses were obtained by the Yaoundé Pasteur Centre in Cameroon and were serotyped group O according to the serological algorithm described in AIDS (1977), 11, pp 445-453.
The HIV-negative sera (n=48) were obtained from healthy volunteers.
The synthetic peptides used were dissolved in water at a concentration of 1 mg/ml (stock solution). For the solid phase sensitization step (coating), 110 μl of a solution at 2 μg/ml of each peptide (obtained by diluting the stock solution with 0.1 M carbonate buffer solution) were added to each well of the microtitre plates Microtiter™ (NUNC). After incubating overnight at room temperature, the microplates were first washed with a Tris-NaCl buffer solution pH 7.4 containing 0.1% of Tween® 20 and 0.001% sodium merthiolate, and then saturated with a PBS solution containing 0.5% of Régilait™ (dried skimmed milk). After aspirating the saturating solution, the plates were heated for 10 min at 50° C.
The serum samples were diluted 1/5 with a skimmed milk solution (citrate buffer supplemented with 0.01% of phenol red, 0.25% of chloroform and 0.25% of Kathon®), deposited in the wells of the plates and incubated for 30 min at 40° C.
After washing with a Tris-NaCl buffer solution pH 7.4 containing 0.1% of Tween® 20 and 0.001% of sodium merthiolate, 100 μl of a solution of conjugate consisting of horseradish peroxidase-labelled anti-human IgG and IgM goat antibodies, containing as preservative 0.01% of sodium merthiolate, in solution in a citrate buffer solution supplemented with 30% glycerol and 25% normal foetal calf serum, were added to each plate well and then the plates were incubated for 30 min at 40° C.
After washing with a Tris-NaCl buffer solution pH 7.4 containing 0.1% of Tween® 20 and 0.001% of sodium merthiolate, the colour was developed by adding, to each well, 100 μl of O-phenylenediamine in solution in hydrogen peroxide. The microplates were then incubated for 30 min at room temperature and in the dark. The coloured reaction was then stopped by addition of 100 μl of 4N sulphuric acid. The absorbance (A) was determined at 490 and 620 nm.
The relative absorbance (A490-A620) read in each well is proportional to the immunoreactivity of each peptide. It indicates the ability of each peptide to react with the biological sample with which the test is carried out. The cut-off value was determined as being an absorbance equal to 0.15. It corresponds to the mean of the negative values (n=48) plus 12 standard deviations.
The reactivity of the peptides of the invention (peptide No. 3 (4B), peptide No. 2 (3B) and peptide No. 1 (2B), all in cyclized form), was compared with that of two synthetic peptides having, as sequence, a portion of the natural sequence of the envelope (env) of the VAU isolate (group O HIV-1 retrovirus) and comprising an immunodominant epitope of gp41.
For the study, these peptides were used in cyclized form.

How did the ABSORBANCE (serum 134) turn out when “RLLALETFIEENELLNLWGCKNRAICYTSVKWNKT (cysteine pairing not given here) [VAU 35 AA, reference compound]” was run?
The ABSORBANCE was “>”.

What about the ABSORBANCE (serum 402) of the same sequence?
Its ABSORBANCE is “>”.

What about the ABSORBANCE (serum 625) of the same sequence?
Its ABSORBANCE is 2.585.

And the ABSORBANCE (serum 1062)?
Its ABSORBANCE is “>”.

What about the ABSORBANCE (serum 1105*) of the same sequence?
Its ABSORBANCE is 0.129.

And the ABSORBANCE (serum 1581)?
Its ABSORBANCE is 0.894.

And the ABSORBANCE (serum 1702)?
Its ABSORBANCE is “>”.

What about the ABSORBANCE (serum 1754) of the same sequence?
Its ABSORBANCE is 1.948.

What about the ABSORBANCE (serum 2294) of the same sequence?
Its ABSORBANCE is “>”.

And the ABSORBANCE (serum 2312)?
The ABSORBANCE was “>”.

What about the ABSORBANCE (serum 2313) of the same sequence?
Its ABSORBANCE is “>”.

What about the ABSORBANCE (serum 2352) of the same sequence?
The ABSORBANCE was “>”.

And the ABSORBANCE (serum 2551)?
The ABSORBANCE was “>”.

What about the ABSORBANCE (serum 2700) of the same sequence?
Its ABSORBANCE is “>”.

And the ABSORBANCE (serum 3016)?
The ABSORBANCE was “>”.

And the ABSORBANCE (serum 3136)?
The ABSORBANCE was “>”.

What about the ABSORBANCE (serum 3235) of the same sequence?
The ABSORBANCE was “>”.

What about the ABSORBANCE (serum 3236) of the same sequence?
Its ABSORBANCE is “>”.

And the ABSORBANCE (serum 3302)?
Its ABSORBANCE is “>”.

And the ABSORBANCE (serum 3482)?
The ABSORBANCE was “>”.

What about the ABSORBANCE (serum 3529) of the same sequence?
The ABSORBANCE was “>”.

What about the ABSORBANCE (serum 3600*) of the same sequence?
The ABSORBANCE was “>”.

What about the ABSORBANCE (serum 3627*) of the same sequence?
Its ABSORBANCE is “>”.

And the ABSORBANCE (serum 3637)?
Its ABSORBANCE is 1.647.

And the ABSORBANCE (serum 3653)?
The ABSORBANCE was 1.322.

And the ABSORBANCE (serum 3771)?
The ABSORBANCE was “>”.

And the ABSORBANCE (serum 3884*)?
The ABSORBANCE was “>”.

And the ABSORBANCE (serum 3891)?
The ABSORBANCE was “>”.

What about the ABSORBANCE (serum 3935) of the same sequence?
Its ABSORBANCE is 0.227.

And the ABSORBANCE (serum 3945)?
Its ABSORBANCE is “>”.

And the ABSORBANCE (serum 4021*)?
The ABSORBANCE was 1.957.

What about the ABSORBANCE (serum 4364) of the same sequence?
The ABSORBANCE was “>”.

And the ABSORBANCE (serum 4434)?
The ABSORBANCE was “>”.

And the ABSORBANCE (serum 4477)?
Its ABSORBANCE is “>”.

What about the ABSORBANCE (serum 4489*) of the same sequence?
The ABSORBANCE was 1.718.

And the ABSORBANCE (serum 5149*)?
Its ABSORBANCE is “>”.

What about the ABSORBANCE (serum 5164) of the same sequence?
Its ABSORBANCE is “>”.

What about the ABSORBANCE (serum 5210) of the same sequence?
The ABSORBANCE was “>”.

And the ABSORBANCE (serum 5270*)?
The ABSORBANCE was “>”.

And the ABSORBANCE (serum 5373)?
The ABSORBANCE was 0.856.

And the ABSORBANCE (serum 5453)?
The ABSORBANCE was 1.482.

What about the ABSORBANCE (serum 5766*) of the same sequence?
Its ABSORBANCE is “>”.

What about the ABSORBANCE (serum 5931) of the same sequence?
Its ABSORBANCE is 2.225.

And the ABSORBANCE (serum 5969*)?
The ABSORBANCE was “>”.

And the ABSORBANCE (serum 6111)?
The ABSORBANCE was “>”.

And the ABSORBANCE (serum 6165)?
The ABSORBANCE was “>”.

What about the ABSORBANCE (serum 6198*) of the same sequence?
The ABSORBANCE was “>”.

What about the ABSORBANCE (serum 6295*) of the same sequence?
Its ABSORBANCE is “>”.

And the ABSORBANCE (serum 6487)?
The ABSORBANCE was 2.891.

And the ABSORBANCE (serum 6512*)?
The ABSORBANCE was 0.174.

What about the ABSORBANCE (serum 6627) of the same sequence?
Its ABSORBANCE is “>”.

What about the ABSORBANCE (serum 6689*) of the same sequence?
The ABSORBANCE was “>”.

What about the ABSORBANCE (serum 6697) of the same sequence?
Its ABSORBANCE is “>”.

What about the ABSORBANCE (serum 6782) of the same sequence?
The ABSORBANCE was 2.214.

What about the ABSORBANCE (serum 6891) of the same sequence?
The ABSORBANCE was 0.496.

What about the ABSORBANCE (serum 6976*) of the same sequence?
The ABSORBANCE was “>”.

And the ABSORBANCE (serum 6998)?
The ABSORBANCE was “>”.

And the ABSORBANCE (serum 7007)?
The ABSORBANCE was 2.151.

What about the ABSORBANCE (serum 7120) of the same sequence?
The ABSORBANCE was “>”.

And the ABSORBANCE (serum 7212)?
Its ABSORBANCE is “>”.

What about the ABSORBANCE (serum 7258*) of the same sequence?
Its ABSORBANCE is “>”.

And the ABSORBANCE (serum 7297*)?
The ABSORBANCE was “>”.

What about the ABSORBANCE (serum 7439) of the same sequence?
The ABSORBANCE was “>”.

What about the ABSORBANCE (serum 7443) of the same sequence?
Its ABSORBANCE is 0.574.

What about the ABSORBANCE (serum DUR*) of the same sequence?
Its ABSORBANCE is 0.872.

What about the ABSORBANCE (serum ESS*) of the same sequence?
The ABSORBANCE was “>”.

And the ABSORBANCE (serum HAD)?
Its ABSORBANCE is 0.871.

What about the ABSORBANCE (serum VAU*) of the same sequence?
The ABSORBANCE was “>”.

— patent publication US7053175B1, “Synthetic peptides useful in biological assays for detecting infections caused by group O HIV-1 viruses” (Bio-Rad Pasteur, priority 1997, dated 2006)
